From ChEMBL document CHEMBL4364276, “Discovery of 4-phenyl-2H-benzo[b][1,4]oxazin-3(4H)-one derivatives as potent and orally active PI3K/mTOR dual inhibitors” (Eur J Med Chem, 2019)

How the values were obtained:
[1] = Toxicity in BALB/c mouse xenografted with human A549 cells assessed as reduction in body weight at 20 mg/kg, ig administered for 30 days; assay type: organism-based; conditions: in vivo, po, 720 h
HeLa [2] = assay: Antiproliferative activity against human HeLa cells assessed as reduction in cell viability incubated for 72 hrs by MTT assay; assay type: functional, cell-based
A549 [3] = assay: Antitumor activity against human A549 cells xenografted in BALB/c nude mouse assessed as tumor growth inhibition at 20 mg/kg, ig administered for 30 days measured every 3 days during compound dosing relative to control; assay type: functional; conditions: A549, po, read-out: TGI
[4] = Toxicity in BALB/c mouse xenografted with human HeLa cells assessed as reduction in body weight at 20 mg/kg, ig administered for 30 days; assay type: organism-based; conditions: in vivo, po, 720 h
HeLa [5] = assay: Antitumor activity against human HeLa cells xenografted in BALB/c nude mouse assessed as tumor growth inhibition at 20 mg/kg, ig administered for 30 days measured every 3 days during compound dosing relative to control; assay type: functional; conditions: po, read-out: TGI
MCF7 = assay: cells; conditions: Homo sapiens, MCF7, 72 h
HCT-116 = assay: Antiproliferative activity against human HCT116 cells assessed as reduction in cell viability incubated for 72 hrs by MTT assay; assay type: functional, cell-based; conditions: HCT-116, 72 h
A-375 = assay: Antiproliferative activity against human A375 cells assessed as reduction in cell viability incubated for 72 hrs by MTT assay; assay type: functional, cell-based; conditions: A-375, 72 h
A549 [6] = assay: cells; conditions: Homo sapiens, A549, 72 h
HepG2 = assay: cells; conditions: Homo sapiens, HepG2, 72 h
[7] = molecular target: Serine/threonine-protein kinase mTOR (Homo sapiens, UniProt P42345); assay: Inhibition of recombinant human N-terminal FLAG-tagged mTOR (1362 to end residues) using Ulight-4E-BP1 as substrate incubated for 30 mins by fluorescence assay
[8] = molecular target: Phosphatidylinositol 4,5-bisphosphate 3-kinase catalytic subunit alpha isoform (Homo sapiens, UniProt P42336); assay: Inhibition of recombinant human full length N-terminal GST-tagged PI3Kalpha (1 to 1068 residues)/PIK3R1 (1 to 724 residues) expressed in baculovirus expression system using PIP2 as substrate incubated for 1 hr by ADP-Glo assay
Chain of Phosphatidylinositol 4,5-bisphosphate 3-kinase catalytic subunit alpha isoform (P42336 whole entry, looked up, the tested form may be a part, canonical isoform): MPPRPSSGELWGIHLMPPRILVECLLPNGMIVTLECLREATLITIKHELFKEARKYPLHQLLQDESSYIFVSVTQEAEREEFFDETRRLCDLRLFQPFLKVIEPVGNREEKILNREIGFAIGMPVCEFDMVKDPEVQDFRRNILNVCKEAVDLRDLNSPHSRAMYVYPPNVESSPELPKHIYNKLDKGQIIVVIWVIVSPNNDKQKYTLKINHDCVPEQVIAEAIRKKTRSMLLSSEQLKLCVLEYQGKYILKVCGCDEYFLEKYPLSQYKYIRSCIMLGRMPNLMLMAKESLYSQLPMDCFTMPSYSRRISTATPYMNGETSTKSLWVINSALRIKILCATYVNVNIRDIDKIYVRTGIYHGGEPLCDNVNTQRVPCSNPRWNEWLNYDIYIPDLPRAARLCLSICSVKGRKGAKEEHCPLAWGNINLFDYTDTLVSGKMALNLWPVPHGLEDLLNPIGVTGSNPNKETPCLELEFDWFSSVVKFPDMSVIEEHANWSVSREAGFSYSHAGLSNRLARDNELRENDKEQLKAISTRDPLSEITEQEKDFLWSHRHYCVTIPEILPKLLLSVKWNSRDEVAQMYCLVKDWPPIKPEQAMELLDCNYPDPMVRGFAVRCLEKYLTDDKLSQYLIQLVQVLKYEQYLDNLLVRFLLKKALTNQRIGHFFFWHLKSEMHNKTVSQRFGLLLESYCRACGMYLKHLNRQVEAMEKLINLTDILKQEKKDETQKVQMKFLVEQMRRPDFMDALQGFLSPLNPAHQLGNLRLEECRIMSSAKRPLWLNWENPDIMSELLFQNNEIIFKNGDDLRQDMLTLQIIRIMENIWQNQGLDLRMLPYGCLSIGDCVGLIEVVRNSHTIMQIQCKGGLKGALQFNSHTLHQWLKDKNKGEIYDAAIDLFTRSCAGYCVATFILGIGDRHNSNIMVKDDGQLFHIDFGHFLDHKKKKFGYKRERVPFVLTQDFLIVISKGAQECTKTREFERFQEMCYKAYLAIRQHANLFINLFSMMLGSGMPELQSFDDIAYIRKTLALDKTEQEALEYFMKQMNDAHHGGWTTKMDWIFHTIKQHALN

[9] = molecular target: PI3-kinase p110-delta/p85-alpha (Homo sapiens, UniProt O00329); assay: Inhibition of recombinant human full length N-terminal GST-tagged PI3Kdelta (1 to 1044 residues)/PIK3R1 (1 to 724 residues) expressed in baculovirus expression system using PIP2 as substrate incubated for 2 hrs by ADP-Glo assay
Chain of PI3-kinase p110-delta/p85-alpha (P27986 whole entry, the tested form may be a part): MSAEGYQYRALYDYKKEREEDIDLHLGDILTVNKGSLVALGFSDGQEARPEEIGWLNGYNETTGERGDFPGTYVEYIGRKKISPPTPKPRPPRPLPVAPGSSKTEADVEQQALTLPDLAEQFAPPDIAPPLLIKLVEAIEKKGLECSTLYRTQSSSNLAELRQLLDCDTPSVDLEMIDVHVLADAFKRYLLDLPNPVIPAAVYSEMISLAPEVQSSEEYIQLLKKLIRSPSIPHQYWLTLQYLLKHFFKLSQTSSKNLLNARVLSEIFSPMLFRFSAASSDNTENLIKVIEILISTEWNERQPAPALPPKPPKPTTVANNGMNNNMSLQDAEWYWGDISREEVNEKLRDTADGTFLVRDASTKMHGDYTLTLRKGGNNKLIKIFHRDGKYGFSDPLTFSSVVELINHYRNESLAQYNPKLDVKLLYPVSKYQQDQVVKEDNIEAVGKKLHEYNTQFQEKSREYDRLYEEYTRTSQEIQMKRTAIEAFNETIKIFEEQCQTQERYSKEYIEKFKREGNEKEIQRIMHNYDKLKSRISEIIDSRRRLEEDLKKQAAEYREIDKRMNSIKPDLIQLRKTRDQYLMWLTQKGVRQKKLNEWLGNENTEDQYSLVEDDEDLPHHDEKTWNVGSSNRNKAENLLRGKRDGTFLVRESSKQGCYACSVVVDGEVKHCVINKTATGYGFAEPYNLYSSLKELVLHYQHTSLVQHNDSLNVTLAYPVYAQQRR
Chain of PI3-kinase p110-delta/p85-alpha (O00329 whole entry, the tested form may be a part): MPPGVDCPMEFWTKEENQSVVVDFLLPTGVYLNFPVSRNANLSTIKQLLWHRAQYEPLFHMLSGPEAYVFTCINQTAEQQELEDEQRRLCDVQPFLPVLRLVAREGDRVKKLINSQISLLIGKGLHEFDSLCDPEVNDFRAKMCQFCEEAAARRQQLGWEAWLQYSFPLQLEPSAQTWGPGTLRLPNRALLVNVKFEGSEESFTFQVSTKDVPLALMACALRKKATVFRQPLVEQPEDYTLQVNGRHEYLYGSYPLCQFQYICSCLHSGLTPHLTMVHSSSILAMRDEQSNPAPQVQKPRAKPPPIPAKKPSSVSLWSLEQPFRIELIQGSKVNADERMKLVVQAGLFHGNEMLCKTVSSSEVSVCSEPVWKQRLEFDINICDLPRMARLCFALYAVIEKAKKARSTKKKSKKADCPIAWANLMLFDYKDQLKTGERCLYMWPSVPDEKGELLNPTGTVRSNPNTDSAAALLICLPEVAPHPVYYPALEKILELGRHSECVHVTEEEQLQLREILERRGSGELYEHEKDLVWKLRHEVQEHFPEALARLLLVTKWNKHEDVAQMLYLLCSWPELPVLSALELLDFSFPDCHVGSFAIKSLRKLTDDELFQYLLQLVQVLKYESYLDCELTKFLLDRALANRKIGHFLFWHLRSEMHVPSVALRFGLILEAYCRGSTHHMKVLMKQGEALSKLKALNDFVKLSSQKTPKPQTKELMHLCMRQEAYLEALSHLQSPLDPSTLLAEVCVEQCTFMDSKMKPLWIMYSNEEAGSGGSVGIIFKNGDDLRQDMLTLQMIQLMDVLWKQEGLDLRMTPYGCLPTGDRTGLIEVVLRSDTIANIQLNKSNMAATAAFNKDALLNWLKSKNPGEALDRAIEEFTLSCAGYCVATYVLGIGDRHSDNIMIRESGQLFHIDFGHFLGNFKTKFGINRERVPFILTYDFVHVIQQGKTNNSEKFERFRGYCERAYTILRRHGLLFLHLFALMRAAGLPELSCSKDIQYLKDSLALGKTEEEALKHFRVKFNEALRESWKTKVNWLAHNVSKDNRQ

SMILES | Activity [1] | IC50 (HeLa [2]) | inhibition in vivo at 20 mg/kg (A549 [3]) | Activity [4] | inhibition in vivo at 20 mg/kg (HeLa [5]) | IC50 (MCF7) | IC50 (HCT-116) | IC50 (A-375) | IC50 (A549 [6]) | IC50 (HepG2) | IC50 [7] | IC50 [8] | IC50 [9]
Cn1c(=O)n(-c2ccc(C(C)(C)C#N)cc2)c2c3cc(-c4cnc5ccccc5c4)ccc3ncc21 [DACTOLISIB] | Toxic | 1.17 µM | 56.1% | Toxic | 66.5% | 0.45 µM | 1.7 µM | 0.58 µM | 1.08 µM | 4.04 µM | – | – | –
COc1cccc(N2C(=O)COc3ccc(-c4cnc(Cl)c(NS(=O)(=O)c5ccc(F)cc5)c4)cc32)c1 | – | > 40 µM | – | – | – | > 40 µM | > 40 µM | > 40 µM | 32.6 µM | > 40 µM | > 1 µM | > 1 µM | > 1 µM
COc1ncc(-c2ccc3c(c2)N(C(C)C)C(=O)CO3)cc1NS(=O)(=O)c1ccc(F)cc1 | – | 2.79 µM | – | – | – | 16.9 µM | 19.2 µM | 9.95 µM | 4.92 µM | 37.2 µM | 0.0036 µM | 0.0453 µM | 0.018 µM
O=C1COc2ccc(-c3cnc4ccccc4c3)cc2N1c1ccc(F)cc1 | – | 38.8 µM | – | – | – | > 40 µM | > 40 µM | > 40 µM | > 40 µM | 37.2 µM | > 1 µM | > 1 µM | > 1 µM
O=C1COc2ccc(-c3ccc(O)cc3)cc2N1c1ccccc1 | – | > 40 µM | – | – | – | 29 µM | > 40 µM | > 40 µM | > 40 µM | > 40 µM | > 1 µM | > 1 µM | > 1 µM
Cc1ccc(N2C(=O)COc3ccc(-c4cnc(Cl)c(NS(=O)(=O)c5ccc(F)cc5)c4)cc32)cc1 | – | 32.3 µM | – | – | – | 32.6 µM | 34.3 µM | 38.9 µM | 30.9 µM | 39.6 µM | 0.0194 µM | 0.0041 µM | 0.0037 µM
O=C1COc2ccc(-c3ccc(O)cc3)cc2N1 | – | > 40 µM | – | – | – | > 40 µM | > 40 µM | > 40 µM | > 40 µM | 38.1 µM | > 1 µM | > 1 µM | > 1 µM
COc1ncc(-c2ccc3c(c2)N(c2ccccc2)C(=O)CO3)cc1NS(=O)(=O)c1ccc(F)cc1 | – | 1.53 µM | – | – | – | 8.87 µM | 18.8 µM | 15.2 µM | 3.49 µM | 14 µM | 0.0486 µM | 0.102 µM | 0.08 µM
Cc1ccc(N2C(=O)COc3ccc(-c4cccc(NS(=O)(=O)c5ccc(F)cc5)c4)cc32)cc1 | – | > 40 µM | – | – | – | 32.1 µM | 35.6 µM | 36.2 µM | > 40 µM | > 40 µM | > 1 µM | > 1 µM | > 1 µM
CC(C)N1C(=O)COc2ccc(-c3cnc4ccccc4c3)cc21 | – | 23.1 µM | – | – | – | 22.9 µM | 23.2 µM | 39 µM | 24.6 µM | > 40 µM | > 1 µM | > 1 µM | > 1 µM
COc1ccc(N2C(=O)COc3ccc(-c4ccc(O)cc4)cc32)cc1 | – | 16.4 µM | – | – | – | 17.3 µM | 26.1 µM | > 40 µM | > 40 µM | 10.8 µM | > 1 µM | > 1 µM | > 1 µM
O=C1COc2ccc(-c3cccc(NS(=O)(=O)c4ccc(F)cc4)c3)cc2N1 | – | > 40 µM | – | – | – | 18.3 µM | > 40 µM | 20.1 µM | 32.1 µM | > 40 µM | > 1 µM | > 1 µM | > 1 µM
O=C1COc2ccc(-c3cnc(Cl)c(NS(=O)(=O)c4ccc(F)cc4)c3)cc2N1c1ccc(F)cc1 | – | > 40 µM | – | – | – | 32.6 µM | 34.2 µM | > 40 µM | 22.3 µM | > 40 µM | 0.0179 µM | 0.0051 µM | 0.005 µM
COc1ncc(-c2ccc3c(c2)N(C2CC2)C(=O)CO3)cc1NS(=O)(=O)c1ccc(F)cc1 | – | 6.03 µM | – | – | – | 35.2 µM | 24.3 µM | 23.9 µM | 3.32 µM | 14.4 µM | 0.253 µM | 0.131 µM | 0.162 µM
O=C1COc2ccc(-c3cnc4ccccc4c3)cc2N1c1ccc(Cl)cc1 | – | > 40 µM | – | – | – | > 40 µM | 36.1 µM | > 40 µM | > 40 µM | 32.7 µM | > 1 µM | > 1 µM | > 1 µM
O=C1COc2ccc(-c3cccc(NS(=O)(=O)c4ccc(F)cc4)c3)cc2N1c1ccccc1 | – | 17.7 µM | – | – | – | > 40 µM | > 40 µM | > 40 µM | > 40 µM | 30.3 µM | > 1 µM | > 1 µM | > 1 µM
O=C1COc2ccc(-c3cnc(Cl)c(NS(=O)(=O)c4ccc(F)cc4)c3)cc2N1c1ccccc1 | – | 10.3 µM | – | – | – | > 40 µM | 39.8 µM | 36.9 µM | 14.7 µM | 35.7 µM | 0.0153 µM | 0.019 µM | 0.015 µM
O=C1COc2ccc(-c3cnc(Cl)c(NS(=O)(=O)c4ccc(F)cc4)c3)cc2N1 | – | 15.6 µM | – | – | – | > 40 µM | > 40 µM | > 40 µM | > 40 µM | > 40 µM | 0.328 µM | 0.115 µM | 0.092 µM
COc1cccc(N2C(=O)COc3ccc(-c4cnc5ccccc5c4)cc32)c1 | – | 11.3 µM | – | – | – | > 40 µM | 8.24 µM | 23.6 µM | > 40 µM | 2.08 µM | > 1 µM | > 1 µM | > 1 µM
O=C1COc2ccc(-c3cccc(NS(=O)(=O)c4ccc(F)cc4)c3)cc2N1c1ccc(Cl)cc1 | – | 35 µM | – | – | – | 39.8 µM | 23.9 µM | 32.5 µM | 31.6 µM | 27.8 µM | > 1 µM | > 1 µM | > 1 µM
COc1ncc(-c2ccc3c(c2)NC(=O)CO3)cc1NS(=O)(=O)c1ccc(F)cc1 | – | 7.11 µM | – | – | – | 32.3 µM | 24.9 µM | 26.3 µM | 8.07 µM | 6.59 µM | 0.635 µM | 0.5 µM | 0.3 µM
COc1ccc(N2C(=O)COc3ccc(-c4cccc(NS(=O)(=O)c5ccc(F)cc5)c4)cc32)cc1 | – | 13.2 µM | – | – | – | 32.4 µM | 28.3 µM | 38.5 µM | 38.2 µM | 29.8 µM | > 1 µM | > 1 µM | > 1 µM
Cc1ccc(N2C(=O)COc3ccc(-c4ccc(O)cc4)cc32)cc1 | – | > 40 µM | – | – | – | 26.2 µM | > 40 µM | > 40 µM | > 40 µM | > 40 µM | > 1 µM | > 1 µM | > 1 µM
O=C1COc2ccc(-c3cccc(NS(=O)(=O)c4ccc(F)cc4)c3)cc2N1c1ccc(F)cc1 | – | > 40 µM | – | – | – | > 40 µM | > 40 µM | > 40 µM | > 40 µM | > 40 µM | > 1 µM | > 1 µM | > 10 µM
O=C1COc2ccc(-c3ccc(O)cc3)cc2N1c1ccc(Cl)cc1 | – | > 40 µM | – | – | – | > 40 µM | 39.6 µM | > 40 µM | > 40 µM | > 40 µM | > 1 µM | > 1 µM | > 1 µM
O=C1COc2ccc(-c3cnc(Cl)c(NS(=O)(=O)c4ccc(F)cc4)c3)cc2N1c1ccc(Cl)cc1 | – | > 40 µM | – | – | – | 32.8 µM | 27.9 µM | 30.6 µM | 21.6 µM | 33.9 µM | 0.0141 µM | 0.002 µM | 0.0032 µM
